# Measured values as given in patent publication US20110040086A1, “Novel Beta-Lactam Antibiotics, Methods for Their Production, and Their Use” (DRITTE PATENTPORTFOLIO BETEILIGUNGSGESELLSCHAFT MB, priority 2007, published 2011).
# Tests used:
# [1] = tested on: Enterococcus faecalis 769; assay: agar diffusion test (Test System II, multi-resistant germs); type: cell-based; set-up: key: r = resistant (no detectable zone of inhibition)
# In short: (§1)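 Compounds, dissolved in methanol or distilled water, were loaded onto paper discs at 10, 50 and 100 μg and placed three per plate on Müller-Hinton agar II spread with a McFarland 0.5 saline suspension. After 18-20 h at 37 °C, inhibition zone diameters were measured.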
# [2] = tested on: Staphylococcus aureus 315; assay: as above; type: cell-based; set-up: key: r = resistant (no detectable zone of inhibition)
# In short: as §1
# [3] = tested on: Staphylococcus haemolyticus 535; assay: as above; type: cell-based; set-up: key: r = resistant (no detectable zone of inhibition)
# In short: as §1
# [4] = tested on: S. aureus 36881; assay: as above; type: cell-based, Staphylococcus aureus; set-up: key: r = resistant (no detectable zone of inhibition)
# In short: as §1
# [5] = tested on: S. aureus 520; assay: as above; type: cell-based, Staphylococcus aureus; set-up: key: r = resistant (no detectable zone of inhibition)
# In short: as §1
# [6] = tested on: S. aureus North Germany strain; assay: as above; type: cell-based, Staphylococcus aureus; set-up: key: r = resistant (no detectable zone of inhibition)
# In short: as §1
# [7] = tested on: S. aureus 38418; assay: as above; type: cell-based, Staphylococcus aureus
# In short: as §1
# [8] = tested on: S. aureus ATCC 6538; assay: as above; type: cell-based, Staphylococcus aureus
# In short: as §1
# [9] = tested on: S. epidermidis 847; assay: as above; type: cell-based, Staphylococcus epidermidis; set-up: key: r = resistant (no detectable zone of inhibition)
# In short: as §1
# [10] = tested on: S. epidermidis 125; assay: as above; type: cell-based, Staphylococcus epidermidis
# In short: as §1
# [11] = tested on: Staphylococcus aureus ATCC 6538; assay: mouse infected with Staphylococcus aureus infection model (survival); type: in vivo, BALB/c mice
# Procedure: Method for Effectiveness In Vivo with the Mouse Infected with Staphylococcus aureus Model
# On Day 0, at least 3 BALB/c mice per test substance (Table 8) or controls are pretreated with cyclophosphamide (250 mg/kg) in 250 μl PBS inta peritoneal (i.p.).
# On Day 2, the animals again received 100 mg/kg i.p.
# On Day 2, a colony of the test germ is transferred from a growing agar plate (Müller-Hinton-Agar, Beckton Dickinson) into a flask with 10 ml CASO broth (CASO-B., Soyabean peptone-Casein peptone broth, SIFIN, 30 g/l) and is cultivated overnight at 37° C. and a shaking frequency of 250 rpm.
# On Day 3, the pre-culture (Vk) is diluted 1:50 with CASO-B and further cultivated ca. 2 hours until an extinction in the medium of 0.6 at a wavelength of 550 nm is reached. Then, it is grown 1× with PBS at room temperature and set again to an extinction of 0.6.
# At least 3 animals for a test substance or controls are infected with 10 μl/g body weight grown germs of a bacteria suspension with the extinction 0.6 (ca. 10^10-10^12 CFU, Colony forming units) i.p.
# After 30 minutes, antibiotic solution is injected into the mice in a volume of 200 μl PBS with 3% DMSO i.p. 6 hours later, the second antibiotic injection is performed at the same concentration. […]
# [12] = tested on: S. aureus 33490; assay: agar diffusion test (Test System II, multi-resistant germs); type: cell-based, Staphylococcus aureus; set-up: key: r = resistant (no detectable zone of inhibition); details: quantity 0.09 μmol
# In short: as §1
# [13] = tested on: Staphylococcus aureus col.; assay: as above; type: cell-based; details: quantity 0.09 μmol
# Procedure: The test substances are deposited in stepped quantities (10 μg, 50 μg, 100 μg) onto active ingredient carriers (sensi-discs). For this purpose, the test substances are dissolved in methanol or A. dest. according to their solubility. Each inoculated plate is fitted with 3 test sheets.
# Test System II (Effect Against Multi-Resistant Germs)
# For this purpose, bacteria is cultivated on Müller-Hinton-Agar II plates.
# With 1-1.5 ml physiological saline solution, a bacteria suspension of McFarland 0.5 (corresponds to a bacteria density of 150×10^6 germs) is produced. Then, with a sterile glass rod, a small drop of bacteria suspension is placed on the Müller-Hinton-Agar plate and coated in three layers (vertical, horizontal, and transverse). Thereafter, the sensi-discs with the novel semi-synthetic test substances are placed on top. The fitted plates are incubated for 18-20 hours at 37° C. After incubation, the diameters of the zones of inhibition are read as a measure for the antimicrobial activity of the novel semi-synthetic test substances.
# [14] = Quantity n 0.02 mol (first line per ingredient)
# [15] = Quantity n 0.1 mol (second line per ingredient)
# [16] = Quantity n 0.2 mol (third line per ingredient)
# [17] = Quantity n 0.02 (first line per ingredient)
# [18] = Quantity n 0.1 (second line per ingredient)
# [19] = Quantity n 0.2 (third line per ingredient)
molecule,measurement,setting,value
"3-chlorine-7-[2-(5-methyl-3,4-dioxocyclohexa-1,5-dienylamino)-2-phenyl-acetylamino]-8-oxo-5-azabicyclo[4.2.0]oct-3-ene-4-carboxylic acid [1s]","Diameter of zone of inhibition, Enterococcus faecalis 769",[1]; Quantity n 0.02,r
same,"Diameter of zone of inhibition, Enterococcus faecalis 769",[1]; Quantity n 0.1,r
same,"Diameter of zone of inhibition, Enterococcus faecalis 769",[1]; Quantity n 0.2,r
same,"Diameter of zone of inhibition, Staphylococcus aureus 315",[2]; Quantity n 0.02 mol,r
same,"Diameter of zone of inhibition, Staphylococcus aureus 315",[2]; Quantity n 0.1 mol,8 mm
same,"Diameter of zone of inhibition, Staphylococcus aureus 315",[2]; Quantity n 0.2 mol,12 mm
same,Diameter of zone of inhibition,[3]; [14],r
same,Diameter of zone of inhibition,[3]; [15],r
same,Diameter of zone of inhibition,[3]; [16],10 mm
same,"Diameter of zone of inhibition, S. aureas 36881",[4]; Quantity n 0.02 mol,r
same,"Diameter of zone of inhibition, S. aureas 36881",[4]; Quantity n 0.1 mol,r
same,"Diameter of zone of inhibition, S. aureas 36881",[4]; Quantity n 0.2 mol,10 mm
same,"Diameter of zone of inhibition, S. aureus 520",[5]; Quantity n 0.02 mol,r
same,"Diameter of zone of inhibition, S. aureus 520",[5]; Quantity n 0.1 mol,r
same,"Diameter of zone of inhibition, S. aureus 520",[5]; Quantity n 0.2 mol,10 mm
same,"Diameter of zone of inhibition, S. aureus North German strain",[6]; [14],r
same,"Diameter of zone of inhibition, S. aureus North German strain",[6]; [15],8 mm
same,"Diameter of zone of inhibition, S. aureus North German strain",[6]; [16],14 mm
same,"Diameter of zone of inhibition, S. aureas 38418",[7]; Quantity n 0.02,14 mm
same,"Diameter of zone of inhibition, S. aureas 38418",[7]; Quantity n 0.1,24 mm
same,"Diameter of zone of inhibition, S. aureas 38418",[7]; Quantity n 0.2,28 mm
same,"Diameter of zone of inhibition, S. aureus ATCC 6538",[8]; [14],20 mm
same,"Diameter of zone of inhibition, S. aureus ATCC 6538",[8]; [15],30 mm
same,"Diameter of zone of inhibition, S. aureus ATCC 6538",[8]; [16],>30 mm
same,"Diameter of zone of inhibition, S. epidermidis 847",[9]; [17],r
same,"Diameter of zone of inhibition, S. epidermidis 847",[9]; [18],14 mm
same,"Diameter of zone of inhibition, S. epidermidis 847",[9]; [19],18 mm
same,"Diameter of zone of inhibition, S. epidermidis 125",[10]; [14],14 mm
same,"Diameter of zone of inhibition, S. epidermidis 125",[10]; [15],22 mm
same,"Diameter of zone of inhibition, S. epidermidis 125",[10]; [16],26 mm
CC1=CC(NC(C(=O)NC2C(=O)N3C(C(=O)O)=C(C)CSC23)c2ccc(O)cc2)=CC(=O)C1=O (stereo not shown) [1q],"Diameter of zone of inhibition, Enterococcus faecalis 769",[1]; Quantity n 0.02,r^1
same,"Diameter of zone of inhibition, Enterococcus faecalis 769",[1]; Quantity n 0.1,r
same,"Diameter of zone of inhibition, Enterococcus faecalis 769",[1]; Quantity n 0.2,10 mm
same,"Diameter of zone of inhibition, Staphylococcus aureus 315",[2]; Quantity n 0.02 mol,r
same,"Diameter of zone of inhibition, Staphylococcus aureus 315",[2]; Quantity n 0.1 mol,10 mm
same,"Diameter of zone of inhibition, Staphylococcus aureus 315",[2]; Quantity n 0.2 mol,14 mm
same,Diameter of zone of inhibition,[3]; [14],r
same,Diameter of zone of inhibition,[3]; [15],r
same,Diameter of zone of inhibition,[3]; [16],10 mm
same,"Diameter of zone of inhibition, S. aureas 36881",[4]; Quantity n 0.02 mol,r
same,"Diameter of zone of inhibition, S. aureas 36881",[4]; Quantity n 0.1 mol,r
same,"Diameter of zone of inhibition, S. aureas 36881",[4]; Quantity n 0.2 mol,10 mm
same,"Diameter of zone of inhibition, S. aureus 520",[5]; Quantity n 0.02 mol,r
same,"Diameter of zone of inhibition, S. aureus 520",[5]; Quantity n 0.1 mol,r
same,"Diameter of zone of inhibition, S. aureus 520",[5]; Quantity n 0.2 mol,10 mm
same,"Diameter of zone of inhibition, S. aureus North German strain",[6]; [14],r
same,"Diameter of zone of inhibition, S. aureus North German strain",[6]; [15],10 mm
same,"Diameter of zone of inhibition, S. aureus North German strain",[6]; [16],12 mm
same,"Diameter of zone of inhibition, S. aureas 38418",[7]; Quantity n 0.02,10^2 mm
same,"Diameter of zone of inhibition, S. aureas 38418",[7]; Quantity n 0.1,18 mm
same,"Diameter of zone of inhibition, S. aureas 38418",[7]; Quantity n 0.2,22 mm
same,"Diameter of zone of inhibition, S. aureus ATCC 6538",[8]; [14],16 mm
same,"Diameter of zone of inhibition, S. aureus ATCC 6538",[8]; [15],20 mm
same,"Diameter of zone of inhibition, S. aureus ATCC 6538",[8]; [16],26 mm
same,"Diameter of zone of inhibition, S. epidermidis 847",[9]; [17],r
same,"Diameter of zone of inhibition, S. epidermidis 847",[9]; [18],14 mm
same,"Diameter of zone of inhibition, S. epidermidis 847",[9]; [19],16 mm
same,"Diameter of zone of inhibition, S. epidermidis 125",[10]; [14],12 mm
same,"Diameter of zone of inhibition, S. epidermidis 125",[10]; [15],20 mm
same,"Diameter of zone of inhibition, S. epidermidis 125",[10]; [16],26 mm
same,Survival/tested mice n/n,[11]; 2 × 0.5 mg (25 mg/kg) i.p.,3/6
same,Survival/tested mice n/n,[11]; 2 × 1.0 mg (50 mg/kg) i.p.,1/3
"CC1(C)SC2C(NC(=O)C(NC3=C(C(=O)NCCO)C(=O)C=CC3=O)c3ccc(O)cc3)C(=O)N2C1C(=O)O (stereo not shown) [6-{2-[2-(2-hydroxyethylcarbamoyl)-3,6-dioxocyclohexa-1,4-dienylamino]-2-(4-hydroxyphenyl)-acetylamino-penicillanic acid]",Diameter of zone of inhibition,[1]; quantity 0.09 μmol,28 mm
same,Diameter of zone of inhibition,[2]; quantity 0.09 μmol,r
same,Diameter of zone of inhibition,[3]; quantity 0.09 μmol,r
same,Diameter of zone of inhibition,[12],18 mm
same,Diameter of zone of inhibition,[4]; quantity 0.09 μmol,r^2
same,Diameter of zone of inhibition,[5]; quantity 0.09 μmol,r
same,Diameter of zone of inhibition,[7]; quantity 0.09 μmol,34 mm
same,Diameter of zone of inhibition,[8]; quantity 0.09 μmol,44 mm
same,Diameter of zone of inhibition,[9]; quantity 0.09 μmol,24 mm
same,Diameter of zone of inhibition,[10]; quantity 0.09 μmol,28 mm
same,Diameter of zone of inhibition,[13],32 mm
